Reference: patent US12427212B2, “Nectin-4 binding miniproteins, conjugates and uses thereof” (Aktis Oncology, Inc., priority 2023, dated 2025)
Bridges are numbered along the chain shown (N, C = ends). Primed or numbered codes have the meaning given here. [ ]: non-standard residue; d: D form. The star is where a group is joined. Arg(NO2) = N=C(NCCC[C@H](N)C(=O)O)N[N+](=O)[O-]; Biotin = O=C1N[C@H]2[C@H](CS[C@H]2CCCCC(=O)*)N1; Lys(Me3) = C[N+](C)(C)CCCC[C@H](N)C(=O)O; Lys(iPr) = CC(C)NCCCC[C@H](N)C(=O)O; Lys(Me2) = CN(C)CCCC[C@H](N)C(=O)O; Cit = NC(=O)NCCC[C@H](N)C(=O)O; Lys(Me) = CNCCCC[C@H](N)C(=O)O; PEG4 = NCCOCCOCCOCCOCCC(=O)O; PEG4″ = 4(ethylene glycol); PEG4′ = not defined here

Test system: not listed separately
Experiment: in vivo
Details: Sprague Dawley, rat, iv
Experimental: To begin, double jugular vein-cannulated Sprague Dawley rats were dosed with bolus intravenous injections of miniproteins (0.03-0.3 mg/kg) and FITC-sinistrin. Nine blood collection timepoints were taken from 0-2 h, processed to plasma with K2 EDTA, and were frozen for subsequent bioanalysis. Plasma miniprotein concentrations were measured by LC-MS/MS. To control for inter-animal renal clearance differences, and to compare with glomerular filtration rate (GFR), the miniprotein was co-formulated with a molecular marker of GFR, FITC-sinistrin (FS) (Pill et al., 2005). Plasma FITC-sinistrin was measured fluorometrically. All unknown sample measurements were interpolated against known authentic standards spiked into normal rat plasma to calculate concentration. Finally, non-compartmental analysis was performed to estimate plasma pharmacokinetic parameters.

`CC[C@H](C)[C@@H]1NC(=O)[C@H](Cc2ccc(O)cc2)NC(=O)[C@H](CC(=O)O)NC(=O)[C@@H]2CSSC[C@@H](C(=O)N[C@@H](CO)C(=O)O)NC(=O)CNC(=O)[C@H](CC(C)C)NC(=O)[C@H](CC(N)=O)NC(=O)[C@H](CC(=O)O)NC(=O)[C@H](CC(C)C)NC(=O)[C@H]([C@@H](C)CC)NC(=O)[C@H](CCC(=O)O)NC(=O)[C@H](CCC(=O)O)NC(=O)[C@H]([C@@H](C)CC)NC(=O)[C@H](CSSC[C@H](NC(=O)CCOCCOCCOCCOCCNC(=O)CN3CCN(CC(=O)O)CCN(CC(=O)O)CCN(CC(=O)O)CC3)C(=O)N[C@@H](CCC(=O)O)C(=O)N[C@@H](Cc3ccc(O)cc3)C(=O)N[C@@H](CC(=O)O)C(=O)N[C@@H](CCC(=O)O)C(=O)N[C@@H](CCC(N)=O)C(=O)N[C@@H](Cc3ccccc3)C(=O)N[C@@H](Cc3ccccc3)C(=O)N[C@@H]([C@@H](C)O)C(=O)N[C@@H](C)C(=O)N[C@@H](CC(C)C)C(=O)N[C@@H](CCCCN)C(=O)N[C@@H](CCCNC(=N)N)C(=O)N[C@@H](CC(C)C)C(=O)N[C@@H](CCCNC(=N)N)C(=O)NCC(=O)N[C@@H](CC(=O)O)C(=O)N[C@@H](CC(=O)O)C(=O)N[C@@H]([C@@H](C)CC)C(=O)N2)NC(=O)[C@H](CC(C)C)NC(=O)CNC(=O)[C@@H]2CCCN2C(=O)[C@H](CC(C)C)NC(=O)[C@H](Cc2ccc(O)cc2)NC(=O)[C@H](CCC(N)=O)NC(=O)[C@H](Cc2ccccc2)NC(=O)[C@H](CO)NC(=O)[C@H](C)NC(=O)[C@H](CCC(N)=O)NC1=O` [Compound C237] and `CC[C@H](C)[C@@H]1NC(=O)[C@H](Cc2ccc(O)cc2)NC(=O)[C@H](CCC(=O)O)NC(=O)[C@@H]2CSSC[C@@H](C(=O)N[C@@H](CO)C(=O)O)NC(=O)CNC(=O)[C@H](CC(C)C)NC(=O)[C@H](CC(N)=O)NC(=O)[C@H](CC(=O)O)NC(=O)[C@H](CC(C)C)NC(=O)[C@H]([C@@H](C)CC)NC(=O)[C@H](CCC(=O)O)NC(=O)[C@H](CCC(=O)O)NC(=O)[C@H]([C@@H](C)CC)NC(=O)[C@H](CSSC[C@H](NC(=O)CCOCCOCCOCCOCCNC(=O)CN3CCN(CC(=O)O)CCN(CC(=O)O)CCN(CC(=O)O)CC3)C(=O)N[C@@H](CC(=O)O)C(=O)N[C@@H](Cc3ccc(O)cc3)C(=O)N[C@@H](CC(=O)O)C(=O)N[C@@H](CCC(=O)O)C(=O)N[C@@H](CCC(N)=O)C(=O)N[C@@H](Cc3ccccc3)C(=O)N[C@@H](Cc3ccccc3)C(=O)N[C@@H]([C@@H](C)O)C(=O)N[C@@H](C)C(=O)N[C@@H](CC(C)C)C(=O)N[C@@H](CCCCN)C(=O)N[C@@H](CCCNC(=N)N)C(=O)N[C@@H](CC(C)C)C(=O)N[C@@H](CCCNC(=N)N)C(=O)NCC(=O)NCC(=O)N[C@@H](CC(=O)O)C(=O)N[C@@H]([C@@H](C)CC)C(=O)N2)NC(=O)[C@H](CC(C)C)NC(=O)CNC(=O)[C@@H]2CCCN2C(=O)[C@H](CC(C)C)NC(=O)[C@H](Cc2ccc(O)cc2)NC(=O)[C@H](CCC(N)=O)NC(=O)[C@H](Cc2ccccc2)NC(=O)[C@H](CO)NC(=O)[C@H](C)NC(=O)[C@H](CCC(N)=O)NC1=O` [Compound C240] are within 1.5-fold of each other in half-life: 28.4 min for the first, 29.7 min for the second.

Test system: Opossum kidney proximal tubule cells
Experiment: Proximal tubule epithelial cell uptake assay
Format: cell-based
Details: Table 10A; mean percent uptake in opossum kidney cells, 1 h at 37° C., relative to control miniprotein C306
Experimental: FIG. 8 is a bar graph of the percent uptake of exemplary miniproteins tested at 20 µM in a proximal tubule epithelial cell assay vs 20 μM control peptide set at 100%. […]
Opossum kidney proximal tubule cells were plated in the upper chamber of 24-well transwell plates containing 600 μL of growth media in the lower chamber and were incubated overnight at 37° C., in 5% CO2. The following day, the media was changed, and cells were incubated an additional 24 h with orbital shaking at 146 RPM. Next, cells were washed and treated in duplicates with biotinylated exemplary miniproteins pre-complexed with streptavidin-AF647 for 1 h at 37° C., and 5% C02 with continuous orbital shaking. Following incubation, cells were washed three times with 1×PBS and lysed with RIPA buffer containing protease and phosphatase inhibitor cocktail and a universal nuclease for 30 minutes. Uptake was measured on 100 μL of lysates using a fluorimeter. Mean % uptake values of control miniprotein C306 in the presence of exemplary miniproteins are provided in TABLE 10A and summarized in FIG. 8.
Uptake of engineered Nectin-4 miniproteins with further modified lysine residues (C298-C304, as described in Example 4B) was evaluated. Percent uptake of these exemplary Nectin-4-targeting miniproteins and C251 were determined against a control miniprotein, C306, using opossum kidney proximal tubule cells as described in Example 18A. Percent uptake of C298, which has an unmodified lysine (K) at amino acid position 26 (along the length of the miniprotein sequence. SEQ ID NO: 162), was 37% in the presence of […]. All other miniproteins having a modified lysine (modified with one or more small alkyl groups of monomethyl, dimethyl, trimethyl, or isopropyl group) had (i) kidney uptake similar to that of C251 and (ii) reduced uptake as compared to C298, which has an unmodified lysine at position 26.

First: C257: exemplary Nectin-4 miniprotein compound ({Biotin-PEG4″}-CDYDEQFFTALKRLRGADICEYIQA[Lys(Me3)]FQYLPGECIEEILDNLGCS-OH; disulfide 1-34, 20-44) [Compound C257]
Second: C262: exemplary Nectin-4 miniprotein compound ({Biotin-PEG4″}-CEYDEQFFTALARLRGADICEYIQA[Lys(Me3)]FQYLPGLCIEEILDNLGCS-OH; disulfide 1-34, 20-44) [Compound C262]
The “% Uptake of C306 (Control)” value of the first is higher: 7.99% for the first, 1.27% for the second.

Compared with “C281 ({Biotin-PEG4′}-CEYDEQFFTALARLRGGDICEYIQA[Cit]FQYLPGLCIEEILDNLGCS-OH; disulfide 1-34, 20-44) [Compound C281]”, “C306: control miniprotein of the proximal tubule cell uptake assay ({Biotin-PEG4′}-CEYDEEFFTALKRLRGGDICYYIKKKFKKVPKLCIEEILDKLGC-NH2; disulfide 1-34, 20-44) [Compound C306, reference compound]” is higher in “% Uptake of C306 (Control)” value: 0.006% for the first, 100% for the second.

In the case of “{Biotin-PEG4}-CEYDEQFFTALARLRGGDICEYIQARFQYLPGLCIEEILDNLGCS-OH (disulfide 1-34, 20-44) [Compound C264]”, the “% Uptake of C306 (Control)” value is reported as 0.859%.

With “C282 ({Biotin-PEG4″}-CEYDEQFFTALARLRGGDICEYIQA[Arg(NO2)]FQYLPGLCIEEILDNLGCS-OH; disulfide 1-34, 20-44) [Compound C282]” the “% Uptake of C306 (Control)” value was 2.14 (n = 1) %.

Same assay, conditions: Table 10B; opossum kidney proximal tubule cells, relative to control miniprotein C306; modified lysine miniproteins

`CC[C@H](C)[C@@H]1NC(=O)[C@H](Cc2ccc(O)cc2)NC(=O)[C@H](CCC(N)=O)NC(=O)[C@@H]2CSSC[C@@H](C(=O)N[C@@H](CO)C(=O)O)NC(=O)CNC(=O)[C@H](CC(C)C)NC(=O)[C@H](CC(N)=O)NC(=O)[C@H](CC(=O)O)NC(=O)[C@H](CC(C)C)NC(=O)[C@H]([C@@H](C)CC)NC(=O)[C@H](CCC(=O)O)NC(=O)[C@H](CCC(=O)O)NC(=O)[C@H]([C@@H](C)CC)NC(=O)[C@H](CSSC[C@H](NC(=O)CCOCCOCCOCCOCCNC(=O)CCCC[C@@H]3SC[C@@H]4NC(=O)N[C@@H]43)C(=O)N[C@@H](CCC(=O)O)C(=O)N[C@@H](Cc3ccc(O)cc3)C(=O)N[C@@H](CC(=O)O)C(=O)N[C@@H](CCC(=O)O)C(=O)N[C@@H](CCC(=O)O)C(=O)N[C@@H](Cc3ccccc3)C(=O)N[C@@H](Cc3ccccc3)C(=O)N[C@@H]([C@@H](C)O)C(=O)N[C@@H](C)C(=O)N[C@@H](CC(C)C)C(=O)N[C@@H](C)C(=O)N[C@@H](CCCNC(=N)N)C(=O)N[C@@H](CC(C)C)C(=O)N[C@@H](CCCNC(=N)N)C(=O)NCC(=O)NCC(=O)N[C@@H](CC(=O)O)C(=O)N[C@@H]([C@@H](C)CC)C(=O)N2)NC(=O)[C@H](CC(C)C)NC(=O)[C@H](C)NC(=O)[C@@H]2CCCN2C(=O)[C@H](CC(C)C)NC(=O)[C@H](Cc2ccc(O)cc2)NC(=O)[C@H](CCC(N)=O)NC(=O)[C@H](Cc2ccccc2)NC(=O)[C@H](CCCCN(C)C)NC(=O)[C@H](C)NC(=O)[C@H](CCC(N)=O)NC1=O` [Compound C300] and `CC[C@H](C)[C@@H]1NC(=O)[C@H](Cc2ccc(O)cc2)NC(=O)[C@H](CCC(N)=O)NC(=O)[C@@H]2CSSC[C@@H](C(=O)N[C@@H](CO)C(=O)O)NC(=O)CNC(=O)[C@H](CC(C)C)NC(=O)[C@H](CC(N)=O)NC(=O)[C@H](CC(=O)O)NC(=O)[C@H](CC(C)C)NC(=O)[C@H]([C@@H](C)CC)NC(=O)[C@H](CCC(=O)O)NC(=O)[C@H](CCC(=O)O)NC(=O)[C@H]([C@@H](C)CC)NC(=O)[C@H](CSSC[C@H](NC(=O)CCOCCOCCOCCOCCNC(=O)CCCC[C@@H]3SC[C@@H]4NC(=O)N[C@@H]43)C(=O)N[C@@H](CCC(=O)O)C(=O)N[C@@H](Cc3ccc(O)cc3)C(=O)N[C@@H](CC(=O)O)C(=O)N[C@@H](CCC(=O)O)C(=O)N[C@@H](CCC(=O)O)C(=O)N[C@@H](Cc3ccccc3)C(=O)N[C@@H](Cc3ccccc3)C(=O)N[C@@H]([C@@H](C)O)C(=O)N[C@@H](C)C(=O)N[C@@H](CC(C)C)C(=O)N[C@@H](C)C(=O)N[C@@H](CCCNC(=N)N)C(=O)N[C@@H](CC(C)C)C(=O)N[C@@H](CCCNC(=N)N)C(=O)NCC(=O)NCC(=O)N[C@@H](CC(=O)O)C(=O)N[C@@H]([C@@H](C)CC)C(=O)N2)NC(=O)[C@H](CC(C)C)NC(=O)[C@H](C)NC(=O)[C@@H]2CCCN2C(=O)[C@H](CC(C)C)NC(=O)[C@H](Cc2ccc(O)cc2)NC(=O)[C@H](CCC(N)=O)NC(=O)[C@H](Cc2ccccc2)NC(=O)[C@H](CCCCNC(C)C)NC(=O)[C@H](C)NC(=O)[C@H](CCC(N)=O)NC1=O` [Compound C301] are the same in “% Uptake of C306” value: 3% for the first, 3% for the second.

First: {Biotin-PEG4}-CEYDEEFFTAL[Lys(Me2)]RLRGGDICQYIQA[Lys(Me3)]FQYLPALCIEEILDNLGCS-OH (disulfide 1-34, 20-44) [Compound C303]
Second: {Biotin-PEG4}-CEYDEEFFTAL[Lys(Me)]RLRGGDICQYIQA[Lys(Me3)]FQYLPALCIEEILDNLGCS-OH (disulfide 1-34, 20-44) [Compound C302]
The “% Uptake of C306” value of the first is higher: 3% for the first, 2% for the second.

For “{Biotin-PEG4}-CEYDEEFFTAL[Lys(iPr)]RLRGGDICQYIQA[Lys(Me3)]FQYLPALCIEEILDNLGCS-OH (disulfide 1-34, 20-44) [Compound C304]”, the “% Uptake of C306” value was 2%.
